Experimental data reported in US10125121B2, “FYN kinase inhibitors” (ROTTAPHARM BIOTECH S.R.L., priority 2015, dated 2018).

Legend:
[1] = tested on: NF-kB activation in JB6 CI 41-5a (P+) cells; test: Gene reporter (GR) assay, NF-kB luciferase after TNFα stimulation; assay type: cell-based, murine; conditions: Mus musculus; 1 h pre-treatment, 2 ng/ml TNFα for 4 h; read-out: IC50(nM) GR Inhibition
Source text: To determine if the compounds of the invention were active also in a cellular model, a gene reporter assay was established in a cell line (JB6 CI 41-5a (P+)) know to activate Fyn kinase via an inflammatory stimuli (TNFα). GR assay measures the activation of the nuclear transcription factor NF-kB, situated down-stream the Fyn activation pathway. Products active in this analysis has to penetrate in the cell and inhibit the activation pathway of NF-kB.
The murine epithelial cell line JB6 CI 41-5a (P+) (ATCC® Cat. # CRL-2010) was stably transfected with the pGL4.32[luc2P/NFkB-RE/Hygro] vector (Promega). Clonal selection was achieved by limiting dilution in MEM (+Earle's BSS+1.5 g/l sodium bicarbonate+0.1 mM NEAA)+GlutaMAX™-I, +1 mM sodium pyruvate, +5% FBS+80 μg/ml Hygromycin B. The clones were tested for their response to TNFα stimulus. The obtained transfected cells (JB6(P+) NFkB-RE-luc2P T3-C10) contained a firefly luciferase gene (luc2P) under the control of minimal TATA promoter with multiple Nuclear Factor-kB response elements (NFkB-REs). These NFkB-REs are DNA binding sequences for the NF-kB transcription factor.
JB6(P+) NFkB-RE-luc2P T3-C10 cells were used for the analysis of NF-kB activity modulation, after TNFα stimulation, by Fyn-inhibitors (Hwang et al.; Biochem. Pharmacol. 2009, 77 (7):1213-22).
6000 cells/well were plated in a 96× well plate. After 24 h new medium without antibiotics was given. After further 24 h the cells were pre-treated with the different compounds for 1 h and then stimulated with 2 ng/ml TNFα for 4 h. In each experiments two positive standards were always used, and each tested condition was analyzed in quadruplicate.
The luciferase analysis was performed with ONE-Glo™+ToxLuciferase Reporter and Cell Viability Assay kit (Promega). This assay combined luciferase assay chemistry with a cell viability marker to better understand reporter gene expression in the context of cell health. The assay uses a two-step process. The first part of the assay was a non-lytic fluorescence assay (CellTiter-Fluor™ Cell Viability Assay) that measured the relative number of live cells in a culture population, as it measures a conserved and constitutive protease activity within live cells. The live-cell protease activity was restricted to intact viable cells and was measured using a fluorogenic, cell-permeant peptide substrate (glycyl-phenylalanyl-aminofluorocoumarin; GF-AFC). The generated fluorescent signal, proportional to the number of living cells, was measured with EnVision microplate reader (PerkinElmer) using an excitation wavelength of 400 nm and emission wavelength of 500 nm.
The second part of the assay uses the ONE-Glo™ Luciferase Assay System to quantify firefly luciferase reporter gene expression. The ONE-Glo™ Assay contained a fluoro-luciferin substrate, more tolerant to sample components than standard luciferase assay reagents. Luminescence was measured with EnVision microplate reader (PerkinElmer).
Compounds of Formula (I) were tested for their capacity to penetrate into the cell and inhibit the activation pathway of NF-kB.

[2] = Pharmacokinetics in rats; assay type: in vivo, rat; conditions: rat, in vivo, po, 1 mg/kg orally
[3] = tested on: mechanical hyperalgesia in meniscal tear osteoarthritis; test: Surgically induced meniscal tear osteoarthritis in the rat (MMT); assay type: in vivo
Source text: Male Sprague Dawley rats (Charles River) approximately 350 g body weight were used. Rats were anesthetized using 2.5% isoflurane in oxygen with a flow rate of 1 I per minute. The right hind leg was shaved and surgically prepared. The medial collateral ligament was exposed and transected. The meniscus was grasped with a hemostat and reflected proximally toward the femur. The meniscus was cut through its full thickness at the narrowest point. The connective tissue layer and the skin were closed with coated Vicryl 8-0 and 4-0 silk sutures, respectively. Sham operated animals underwent an identical procedure with the exception that the medial collateral ligament was exposed but not transected. After a recovery period of 2 weeks, mechanical hyperalgesia was evaluated for the following 4 weeks, once a week, before and 90 minutes after drugs administration. Pharmacological oral treatment was performed for 28 days, starting from 14 days after surgery. After 6 weeks from surgery, rats (ten animals per group) were sacrificed and the ipsilateral knee was removed for histopathological analysis.
The maximum possible effect (MPE %) was calculated by the following formula: 100*(Compound−Vehicle)/(Sham−Vehicle)

[4] = target: FYN (Homo sapiens, UniProt P06241); test: Kinase selectivity panel by Cerep
[5] = target: CDK2 (Homo sapiens, UniProt P24941); test: Kinase selectivity panel by Cerep; conditions: read-out: inhibition of CDK2
[6] = 10 mg/kg daily orally, day 21 post surgery
[7] = 10 mg/kg daily orally, day 28 post surgery
[8] = 10 mg/kg daily orally, day 35 post surgery
[9] = 10 mg/kg daily orally, day 42 post surgery
[10] = 30 mg/kg daily orally, day 21 post surgery
[11] = 30 mg/kg daily orally, day 28 post surgery
[12] = 30 mg/kg daily orally, day 35 post surgery
[13] = 30 mg/kg daily orally, day 42 post surgery

Sequence of FYN (P06241 whole entry): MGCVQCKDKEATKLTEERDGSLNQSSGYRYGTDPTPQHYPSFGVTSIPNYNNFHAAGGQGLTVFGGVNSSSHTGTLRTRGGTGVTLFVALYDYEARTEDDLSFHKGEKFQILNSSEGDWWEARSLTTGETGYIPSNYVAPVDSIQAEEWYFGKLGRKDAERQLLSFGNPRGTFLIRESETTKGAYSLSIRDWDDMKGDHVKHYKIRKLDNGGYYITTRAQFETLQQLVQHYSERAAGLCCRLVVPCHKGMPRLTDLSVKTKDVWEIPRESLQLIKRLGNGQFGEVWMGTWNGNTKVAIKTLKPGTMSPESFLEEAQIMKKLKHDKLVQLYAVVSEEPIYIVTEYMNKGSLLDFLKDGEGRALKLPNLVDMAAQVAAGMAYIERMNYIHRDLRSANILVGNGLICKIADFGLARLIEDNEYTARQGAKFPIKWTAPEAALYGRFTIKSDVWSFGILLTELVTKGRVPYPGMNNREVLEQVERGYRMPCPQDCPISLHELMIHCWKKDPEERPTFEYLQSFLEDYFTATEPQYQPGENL

For O=C(Nc1ccc(CN2CCN(c3nccc(Nc4cc(C5CC5)[nH]n4)n3)CC2)cc1)c1ccccc1C(F)(F)F [Compound 2, N-(4-((4-(4-((5-cyclopropyl-1H-pyrazol-3-yl)amino)pyrimidin-2-yl)piperazin-1-yl)methyl)phenyl)-2-(trifluoromethyl)-benzamide], the IC50 [1] was 190 nM, the bioavailability [2] was 51% and the AUC(0-t) ([2]; read-out: AUC (0-24 h)) was 877 ng·h/mL. The “Pain threshold” value ([3]; 10 mg/kg daily orally, day 14 post surgery) was 308 g, the “Pain threshold” value [3, 6] was 333 g and the “Pain threshold: MPE (%)” value [3, 6] was 30.5%. The “Pain threshold” value [3, 7] was 323 g, the “Pain threshold: MPE (%)” value [3, 7] was 22.6% and the “Pain threshold” value [3, 8] was 313 g. For the same compound, the “Pain threshold: MPE (%)” value [3, 8] was 18.2%, the “Pain threshold” value [3, 9] was 298 g and the “Pain threshold: MPE (%)” value [3, 9] was 21%. For the same compound, the “Pain threshold” value ([3]; 30 mg/kg daily orally, day 14 post surgery) was 305 g, the “Pain threshold” value [3, 10] was 358 g and the “Pain threshold: MPE (%)” value [3, 10] was 44%. For the same compound, the “Pain threshold” value [3, 11] was 343 g, the “Pain threshold: MPE (%)” value [3, 11] was 35.5% and the “Pain threshold” value [3, 12] was 335 g. The “Pain threshold: MPE (%)” value [3, 12] was 38.2%, the “Pain threshold” value [3, 13] was 320 g and the “Pain threshold: MPE (%)” value [3, 13] was 43%. For the same compound, the IC50 [4] was 9 nM and the inhibition at 0.1 µM [5] was > 50%.
